These results are taken from patent US9339486B2, “Heterocyclic modulators of cannabinoid receptors” (THE CLEVELAND CLINIC FOUNDATION, priority 2008, dated 2016).

Data set [1] deals with T1, CB2 (Homo sapiens (Human), UniProt P34972). Description: CB2 Binding Assay ([3H]WIN 55212-2, cell membrane homogenates). How it is done: Cell membrane homogenates (15 μg protein) were incubated for 120 min at 37° C. with 0.8 nM [3H]WIN 55212-2 (the reference standard [Munro, 1993 #1321]) in the absence or presence of the test compound in a buffer containing 50 mM HEPES/Tris HCL (pH 7.4), 5 mM MgCl2, 2.5 mM EGTA, and 0.1% BSA. Nonspecific binding was determined in the presence of 10 μM WIN 55212-2. After being incubated, the samples were filtered rapidly under vacuum through glass fiber filters (GF/B; Packard) presoaked with 0.3% PEI and rinsed several times with ice-cold buffer containing 50 mM Tris HCl (pH 7.4) and 0.5% BSA using a 96-sample cell harvester (Unifilter; Packard). The filters were dried then counted for radioactivity in a scintillation counter (Topcount; Packard) using a scintillation cocktail (Microscint 0; Packard). The results were expressed as a percentage of the inhibition of the control radioligand-specific binding. The reference standard compounds were tested in each experiment at several concentrations to obtain a competition curve from which its IC50 was calculated.

Data set [2] has as its target T1, CB2. Description: CB1/CB2 Functional Assay (GTPγ[35S]), CB2 membranes. The data set is classed as biochemical. How it is done:
A dose response curve was generated at eight concentrations in duplicate on CB1 and CB2 in light of reference agonists. The reference agonists for cannabinoid receptors was CP55,940. See FIGS. 1A, 1B, 2A, 2B, 3A and 3B.
Membranes (CB1, ES-110-MG or CB2, ES-111-MG) were mixed with GDP (volume:volume) and incubated for at least 15 min on ice. In parallel, GTPγ[^35S] were mixed with the beads (volume:volume) just before starting the reaction. The following reagents were successively added in the wells of an Optiplate: 50 μl of ligand, 20 μl of the membranes:GDP mix, 10 μl of assay buffer for agonist testing and 20 μl of the GTPγ[^35S]: beads mix. The plates were covered with a topseal, shaken on an orbital shaker for 2 min, and then incubated between 30 to 60 min. at room temperature. Then the plates were centrifuged for 10 min at 2000 rpm, incubated at room temperature between 1 to 4 hours and counted for 1 min with a PerkinElmer TopCount reader.

Data set [3] relates to naïve rats. Description: Open field chamber testing. The data set is classed as in vivo, rat. As to conditions: i.p.: Example 3 15 mg/kg, WIN 55,212-2 7 mg/kg, haloperidol 1 mg/kg. How it is done: The automated open-field chamber (Med Associates ENV-515 Test Environment, St. Albans, Vt.) 43.2×43.2×30.5 cm (L×W×H) equipped with three pairs of 16 infrared arrays that continually monitored the animal's movement was used to determine potential CNS effects of the compound of Example 3, WIN55212-2, and haloperidol in naïve rats. Rats were individually tested 15 min after i.p. drug administration. The infrared beams were set 2.5 cm apart horizontally and at a height of 3 cm above the floor, with the rearing array set at 12 cm from the floor. The area in the box was divided into 4 equal quadrants (zones), with data collected within each quadrant and across quadrants (zone entries). An ambulatory movement was defined as a motion of at least 5 cm and was coded by quadrant. Vertical movements were counted when the rat moved vertically a minimum of 12 cm from the floor. Zone entries were defined as an entry into a zone (from another zone). Entry into a zone was counted when the rat was far enough into the zone to break 2 sets of photoelectric beams for the new zone beams during an ambulatory movement.

Setting [4] is: CB2, test concentration 1.0E−05 (MD).

T1 sequence (P34972 whole entry): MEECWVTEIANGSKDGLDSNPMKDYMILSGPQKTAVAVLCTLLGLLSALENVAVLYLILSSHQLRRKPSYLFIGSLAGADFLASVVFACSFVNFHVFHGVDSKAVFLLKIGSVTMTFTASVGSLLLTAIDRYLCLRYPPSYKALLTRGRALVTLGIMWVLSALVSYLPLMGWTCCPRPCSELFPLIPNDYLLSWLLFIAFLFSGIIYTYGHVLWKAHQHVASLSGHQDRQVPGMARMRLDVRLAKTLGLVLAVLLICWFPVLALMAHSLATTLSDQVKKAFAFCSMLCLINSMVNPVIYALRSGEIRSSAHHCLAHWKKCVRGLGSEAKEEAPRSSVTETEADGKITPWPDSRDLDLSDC

Usually EC50 stands for the concentration giving half of the maximal effect. Consider `CC1(Cc2ccccc2)COc2cc(C(=O)N3CCCCC3)ccc21` (stereo not drawn) [Example 3, 3-benzyl-3-methyl-2,3-dihydrobenzofuran-6-carboxylic acid-piperidine amide], for which, in data set [1] (setting [4]), the “% Inhibition of Control Specific Binding” value is 91% and the “% of Control Specific Binding Mean” value worked out at 9.4%. For the same molecule, the “% of Control Specific Binding 1st” value in data set [1] (CB2, test concentration 1.0E−05 (MD), first replicate) is 13%. The “% of Control Specific Binding 2nd” value in data set [1] (CB2, test concentration 1.0E−05 (MD), second replicate) is 5.8%. Also, the “% Inhibition of Control Specific Binding CB2” value in data set [1] (as repeated in Table 4) is reported as 91%. The “Compound Function” value in data set [2] is “Agonist”. Also, the EC50 in data set [2] (read-out: EC50 (nM) for GTP Binding) amounted to 160 nM. Also, in data set [2] (reference agonist CP55,940), the “% Activation Average” value came to 87.2%. Besides, the “exploratory behavior in the open field (distance traveled, ambulatory time, rearing, zone entries)” value in data set [3] was “absence of psychoactive cannabinoid effect”.
